Measured values taken from paper PMC10455244, “Alpha-Mangostin: A Potent Inhibitor of TRPV3 and Pro-Inflammatory Cytokine Secretion in Keratinocytes” (International Journal of Molecular Sciences, 2023).

How the values were obtained:
[1] = tested on: HEK 293T cells expressing the WT TRPV3; test: in vitro; format: cell-based, human; details: 24 h
TRPV3 (G573C) = target: T1, TRPV3 (G573C) (Homo sapiens, UniProt Q8NET8, G573C); test: Fura-2 calcium imaging, spontaneous Ca2+ increase in TRPV3 (G573C)-expressing HEK 293T cells; format: cell-based; details: 1 µM
T1 construct: host or cells: HEK 293T (transient transfection, pEGFP-N1 co-transfected as a marker)
T1 sequence (Q8NET8 1-790 G573C): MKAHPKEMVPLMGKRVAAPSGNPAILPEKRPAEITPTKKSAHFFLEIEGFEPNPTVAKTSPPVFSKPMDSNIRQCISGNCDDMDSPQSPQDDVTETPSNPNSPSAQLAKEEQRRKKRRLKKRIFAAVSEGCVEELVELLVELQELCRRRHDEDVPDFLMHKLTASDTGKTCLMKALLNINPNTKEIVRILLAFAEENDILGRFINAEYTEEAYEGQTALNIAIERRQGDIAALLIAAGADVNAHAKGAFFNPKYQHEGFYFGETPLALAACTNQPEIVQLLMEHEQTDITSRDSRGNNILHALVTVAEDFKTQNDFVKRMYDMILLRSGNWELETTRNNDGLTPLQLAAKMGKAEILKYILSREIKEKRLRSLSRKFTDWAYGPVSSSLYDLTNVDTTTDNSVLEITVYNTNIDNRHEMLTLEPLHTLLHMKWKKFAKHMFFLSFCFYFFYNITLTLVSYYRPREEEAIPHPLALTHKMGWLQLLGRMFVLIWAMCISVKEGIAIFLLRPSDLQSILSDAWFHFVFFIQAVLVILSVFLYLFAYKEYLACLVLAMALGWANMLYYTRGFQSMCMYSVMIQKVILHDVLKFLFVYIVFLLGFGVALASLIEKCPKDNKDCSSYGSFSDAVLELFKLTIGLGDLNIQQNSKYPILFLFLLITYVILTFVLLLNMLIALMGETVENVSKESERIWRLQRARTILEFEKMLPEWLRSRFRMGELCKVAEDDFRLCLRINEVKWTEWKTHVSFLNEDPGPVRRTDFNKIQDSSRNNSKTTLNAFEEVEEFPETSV
Source text: Figure 4 Alpha-mangostin inhibited the activity of hyperactive TRPV3 mutant channels and rescued mutation-induced cell death. (A) Alpha-mangostin inhibited the channel current in representative TRPV3 (G573S)- and TRPV3 (G573C)-expressing HEK 293T cells. […] Currents were normalized to the response at −100 mV before adding alpha-mangostin. (C) Alpha-mangostin inhibited TRPV3-mediated intracellular calcium increase in TRPV3 (G573S)-expressing HEK 293T cells. […] The bar graph on the right summarizes the change in the intracellular calcium rise inhibited by alpha-mangostin. […]
Subsequently, the effects of alpha-mangostin on the activities of the mutated channels were further evaluated using intracellular calcium measurements.
Fura-2 AM (Thermo Fisher Scientific) was utilized as a fluorescent indicator to measure calcium signal, as described previously. […] To measure the cytosolic Ca^2+ level, a sequential excitation of Fura-2 is performed at 340 nm and 380 nm; then, the emission signals resulting from each excitation wavelength are measured and the ratio of these signals is calculated. […] Samples were excited using a wavelength of 380 nm for 20 ms, followed by 340 nm for 100 ms, and fluorescence at 510 nm was recorded. Recorded data were then analyzed using NIS-Element AR Version 5.00.00 (Nikon Instruments, Melville, NY, USA). […]

Compound: COc1c(O)cc2oc3cc(O)c(CC=C(C)C)c(O)c3c(=O)c2c1CC=C(C)C [Alpha-mangostin]
- Increase of viability of cells expressing the WT channel ([1]; 1 µM alone): not statistically significant
- Cell viability (normalized O.D., compared with mock cells) ([1]; human, 1 µM): 82.07% ± 1.34
- Effect on spontaneous intracellular calcium increase (TRPV3 (G573C)): potently attenuated
